Measured values from ChEMBL document CHEMBL5576096, “Triplinones A-H: Anti-Inflammatory Arylalkenyl α,β-Unsaturated-δ-Lactones Isolated from the Leaves of Australian Rainforest Plant Cryptocarya triplinervis (Lauraceae)” (J Nat Prod, 2024).

Tests used:
[1] = Cytotoxicity against LPS/IFNgamma-stimulated mouse RAW264.7 cells assessed as reduction in cell viability after 24 hrs by Alamar Blue assay; assay type: toxicity, cell-based; conditions: LPS/IFNgamma-stimulated RAW264.7 cells, read-out: LC50
RAW264.7 = assay: Inhibition of NO production in LPS/IFNgamma-stimulated mouse RAW264.7 cells preincubated for 1 hr followed by LPS/IFNgamma addition and measured after 24 hrs by griess reagent based assay; assay type: functional, cell-based
[2] = Inhibition of TNF-alpha production in LPS/IFNgamma-stimulated mouse RAW264.7 cells preincubated for 1 hr followed by LPS/IFNgamma addition and measured after 24 hrs by ELISA; assay type: functional, cell-based
[3] = Therapeutic index, ratio of LC50 for cytotoxicity against LPS/IFNgamma-stimulated mouse RAW264.7 cells to IC50 for inhibition of NO production in LPS/IFNgamma-stimulated mouse RAW264.7 cells; assay type: toxicity, cell-based; conditions: LPS/IFNgamma-stimulated RAW264.7 cells, read-out: Ratio LC50/IC50

| Structure (SMILES) | CC50 at 24 h [1] [µM] | IC50 (RAW264.7) [µM] | IC50 [2] [µM] | selectivity ratio [3] |
| --- | --- | --- | --- | --- |
| O=C1C=CC[C@H](CCC[C@H](O)C[C@@H](O)CC/C=C/c2ccccc2)O1 | 33.4 | 6 | 27.4 | 5.6 |
| O=C1C=CC[C@H](C[C@@H](O)CCC[C@H](O)C[C@@H](O)CC/C=C/c2ccccc2)O1 | 41.3 | 15 | 28.9 | 2.8 |
| O=C1C=CC[C@H](C[C@H](O)C[C@@H](O)CC/C=C/c2ccccc2)O1 | 37.6 | 5.6 | 29.4 | 6.8 |
| O=C1C=CC[C@H](C[C@@H](O)C[C@H](O)C[C@@H](O)CC/C=C/c2ccccc2)O1 | > 278 | 102 | > 278 | > 2.7 |
| O=C1C=CC[C@H](/C=C/C[C@H](O)C[C@@H](O)CC/C=C/c2ccccc2)O1 | 79.8 | 7.3 | 28.3 | 10.9 |
| O=C1C=CC[C@H](/C=C/C=C/C[C@H](O)C[C@@H](O)CC/C=C/c2ccccc2)O1 | 41.3 | 5.4 | 27.9 | 7.6 |
| CC(=O)O[C@H](C[C@@H](O)CC/C=C/c1ccccc1)C[C@H]1CC=CC(=O)O1 | 97.9 | 10.3 | 17.1 | 9.5 |
| O=C1C=CC[C@H](CC(O)/C=C/C[C@H](O)C[C@@H](O)CC/C=C/c2ccccc2)O1 (stereo partly specified) | 159 | 64.7 | 39.1 | 2.5 |
| COc1cc(/C=C/C(=O)CC(=O)/C=C/c2ccc(O)c(OC)c2)ccc1O [CURCUMIN] | 73 | 22.5 | 31.2 | 3.2 |
